# How the values were obtained:
# Type in all cases: biochemical
# [1] = target: T1, Fructofuranosidase activity of the extracellular fraction of S. occidentalis (Schwanniomyces occidentalis, UniProt P24133); assay: Fructofuranosidase activity of the extracellular fraction on different carbohydrates (glucose release, glucose oxidase-peroxidase); details: for Specific activity: extracellular fraction concentrated (30 kDa filter) and dialysed, activity on the named substrate; for Fructofuranosidase activity on substrate (in words): extracellular fraction, named sugar used as substrate
# T1 construct: the enzyme object of the invention is extracellularly released; endogenous in cells; host or cells: Schwanniomyces occidentalis (ATCC26077 named) grown in lactose medium; the cell-free supernatant was concentrated by 30 kDa tangential filtration and dialysed
# Experimental: (§1) The cell free fraction was obtained by centrifugation (F-0) of a culture of S. occidentalis ATCC26077 grown at 29° C. and 235 rpm. Fructofuranosidase activity was assayed in the latter, determining the glucose release on different substrates. A colorimetric assay and the standard methodology were used. The released glucose was quantified using the glucose oxidase-peroxidase coupled reaction: 0.4 ml of the solution to be determined was mixed with 0.1 ml of A:B (20:1) solution (A: 0.85 U/ml glucose oxidase, 0.40 U/ml peroxidase in sodium phosphate buffer pH 5; B: 0.6% O-dianisidine). It was incubated for 30 minutes at 37° C. and spectrophotometrically quantified at 450 nm. A standard glucose curve (0 to 100 μg/ml) was used. The fructofuranosidase activity unit is defined in μmol/ml min of glucose determined in the described conditions.
# The cell free fraction, obtained by centrifugation, of a culture of S. occidentalis grown in lactose medium: 0.3% (w/v) YNB (yeast nitrogen base w/o amino acids, DIFCO), 3.5% (w/v) bactopeptone (DIFCO), 0.5% (w/v) KH2 PO4, 1% (w/v) MgSO4.7H2O, 1% (w/v) (NH4)SO4, and 2% lactose as a carbon source (R. D. Klein et al., “Purification and characterization of invertase from to novel industrial yeast, Schwanniomyces occidentalis”, Prep. Biochem, 1989, vol 19, pp. 293-319), grown until an optical density of 8.34 OD 660 nm, was concentrated using a tangential filtration system (30 kDa filter) followed by dialysis against 20 mM HCl-Tris pH 7 for 2 hours at a temperature of 4° C. and was assayed on different substrates.
# [2] = target: T2, Fructofuranosidase activity of the F-3 fraction of S. occidentalis (Schwanniomyces occidentalis, UniProt P24133); assay: Fructofuranosidase (hydrolytic) activity of the purified enzyme F-3 on different substrates; details: for Activity specific: purified protein F-3, 1% substrate; for Hydrolytic activity on substrate (in words): purified enzyme F-3
# T2 construct: the enzyme object of the invention is extracellularly released; endogenous in cells; host or cells: Schwanniomyces occidentalis culture supernatant; concentrated (F-1), then DEAE-Sephacel at pH 7 (F-2) and at pH 5 (F-3)
# Experimental: as §1
# The hydrolytic activity of the purified enzyme (F-3), following the described method, was assayed on different substrates. The maximum activity level is obtained on sucrose. Activity on lactose, leucrose, turanose or palatinose was not observed.
# [3] = target: T3, fructofuranosidase of S. occidentalis (enzymatic concentrate F-1) (Schwanniomyces occidentalis, UniProt P24133); assay: Transfructosidase (transglycosylation) activity of enzymatic concentrate F-1 on sucrose, HPLC; details: for Composition of the system: maximum point of FOS production (4 h), F-1 5 U/ml; for Composition of the system / Composition of the reaction mixture: 50° C.; for Composition of the reaction mixture: F1 5 U/ml, pH 5.6
# T3 construct: the enzyme object of the invention is extracellularly released; endogenous in cells; host or cells: Schwanniomyces occidentalis (ATCC26077 named) grown in lactose medium; the cell-free supernatant was concentrated by 30 kDa tangential filtration and dialysed
# Experimental: The transglycosylation activity of the enzymatic concentrate obtained by ultrafiltration (F-1) was assayed. A reaction was prepared using a high concentration of sucrose (510 g/l), to favor the formation of glycosidic bonds in detriment of the hydrolysis reaction, and a final activity enzymatic in the reaction mixture of approximately 5 U/ml. […] On one hand, fructose (peak 1) and glucose (peak 2) are formed as hydrolytic products. On the other hand, two trisaccharides are obtained: a majority trisaccharide (peak 4), identified as 6-kestose [β-D-Fru-(2→6)-β-D-Fru-(2→1)-α-D-Glu] and another minority trisaccharide (peak 5), identified as 1-kestose. [β-D-Fru-(2→1)-β-D-Fru-(2→1)-α-D-Glu]. The sucrose that has not reacted corresponds to peak 3.
# It is observed that the 6-kestose/1-kestose molar ratio reaches a maximum value of 3.3 between 4 and 6 hours of reaction.
# A high concentration solution of sucrose (510 g/l) in 0.2 M sodium acetate buffer pH 5.6 was prepared. The fructofuranosidase was added until a final concentration in the reaction mixture of 5 U/ml (one unit U is the enzymatic activity corresponding to release of a micromole of reducing sugars per minute, using 100 g/l of sucrose as substrate, in 0.2 M sodium acetate buffer pH 5.6, at 50° C.). The reaction mixture was incubated for 24 hours at 50° C., with orbital stirring at 700 rpm. Aliquots were extracted at different times, incubated for 5 minutes at 80° C. to inactivate the enzyme, diluted 1:2 (v/v) with water, centrifuged for 5 minutes at 6000 rpm in an eppendorf tube with a 0.45 μm filter and analyzed by HPLC liquid chromatography. The profile of the products formed is seen in FIG. 5. It is observed that the fructofuranosidase of S. occidentalis has transfer activity (transfructosylation). Two trisaccharides are obtained: one majority trisaccharide, 6-kestose [3-D-Fru-(2→6)-β-D-Fru-(2→1)-α-D-Glu]and another minority trisaccharide, identified as 1-kestose [β-D-Fru-(2→1)-β-D-Fru-(2→1)-α-D-Glu]. In the maximum point of FOS production (4 h), the composition of the system was: 8.7% fructose, 11.9% glucose, 70.8% sucrose, 2.0% 1-kestose and 6.6% 6-kestose.
# [4] = target: T4, fructofuranosidase of S. occidentalis (pure enzyme F-3) (Schwanniomyces occidentalis, UniProt P24133); assay: Transfructosidase (transglycosylation) activity of pure enzyme F-3 on sucrose, HPLC; details: for Composition of the system: final reaction time (144 h), F-3 0.5 U/ml, 50° C.
# T4 construct: the enzyme object of the invention is extracellularly released; endogenous in cells; host or cells: Schwanniomyces occidentalis culture supernatant; concentrated (F-1), then DEAE-Sephacel at pH 7 (F-2) and at pH 5 (F-3)
# Experimental: The transglycosylation activity of the pure enzyme (fraction F-3) was assayed. A reaction was prepared using a high concentration of sucrose (510 g/l) and a final enzymatic activity in the reaction mixture of approximately 0.5 U/ml. […] It is seen that the profile of the obtained products is very similar in both cases, specifically the 6-kestose/1-kestose ratio that was obtained was 3.3.
# After 144 hours of reaction, 42.6 g/l of FOS were obtained. The total percentage (w/w) of fructooligosaccharides was 8.4% this value being with respect to the total weight of carbohydrates in the medium.
# A high concentration solution of sucrose ([…]) in 0.2 M sodium acetate buffer pH 5.6 was prepared. The fructofuranosidase was added until a final concentration in the reaction mixture of 0.5 U/ml (one unit U is the enzymatic activity corresponding to releasing a micromole of reducing sugars per minute, using 100 g/l of sucrose as substrate, in 0.2 M sodium acetate buffer pH 5.6, at 50° C.). The reaction mixture was incubated for 144 hours at 50° C., with orbital stirring at 700 rpm. Aliquots were extracted at different times, incubated for 5 minutes at 80° C. to inactivate the enzyme, diluted 1:2 (v/v) with water centrifuged for 5 minutes at 6000 rpm in an eppendorf tube with a 0.45 μm filter and analyzed by HPLC liquid chromatography. The profile of the products formed is seen in FIG. 7. Two trisaccharides were obtained: a majority trisaccharide, identified as 6-kestose, and another minority trisaccharide, identified as 1-kestose. At the final reaction time (144 h), the composition of the system was: 12.7% fructose, 14.80/glucose. 64.1% sucrose, 2.4% 1-kestose and 5.9% 6-kestose).
# T1 sequence (P24133 other isoform, or with tags, fused parts or gaps with the stated changes): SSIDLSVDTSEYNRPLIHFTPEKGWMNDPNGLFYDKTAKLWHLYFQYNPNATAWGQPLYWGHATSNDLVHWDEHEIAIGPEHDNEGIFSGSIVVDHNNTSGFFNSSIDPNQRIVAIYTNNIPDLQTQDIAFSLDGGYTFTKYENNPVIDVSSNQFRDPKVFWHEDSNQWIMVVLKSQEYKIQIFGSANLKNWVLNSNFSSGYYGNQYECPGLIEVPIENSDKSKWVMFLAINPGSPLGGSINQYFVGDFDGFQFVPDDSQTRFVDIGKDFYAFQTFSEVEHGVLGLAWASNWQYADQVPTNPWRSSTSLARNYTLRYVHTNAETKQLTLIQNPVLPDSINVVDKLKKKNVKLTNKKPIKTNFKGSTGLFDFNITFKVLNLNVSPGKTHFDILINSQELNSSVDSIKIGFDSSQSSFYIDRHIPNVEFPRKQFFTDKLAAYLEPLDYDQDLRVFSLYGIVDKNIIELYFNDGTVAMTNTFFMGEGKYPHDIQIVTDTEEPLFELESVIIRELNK
# T4 sequence (P24133 other isoform, or with tags, fused parts or gaps with the stated changes): as above
# T2 sequence (P24133 other isoform, or with tags, fused parts or gaps with the stated changes): as above
# T3 sequence (P24133 other isoform, or with tags, fused parts or gaps with the stated changes): as above
SMILES,Specific activity [1],Activity specific [2],Composition of the system [3],Composition of the reaction mixture ([3]; reaction time 1 h),Composition of the reaction mixture ([3]; reaction time 1.5 h),Composition of the reaction mixture ([3]; reaction time 4 h),Composition of the reaction mixture ([3]; reaction time 6 h),Composition of the reaction mixture ([3]; reaction time 24 h),Composition of the system [4],"6-kestose/1-kestose molar ratio, maximum value ([3]; between 4 and 6 hours of reaction, F-1)","6-kestose/1-kestose ratio ([4]; pure enzyme F-3 0.5 U/ml, 144 hours)",Fructofuranosidase activity on substrate (in words) [1],Hydrolytic activity on substrate (in words) [2]
"OC[C@H]1O[C@@](CO)(OC[C@@]2(O[C@H]3O[C@H](CO)[C@@H](O)[C@H](O)[C@H]3O)O[C@H](CO)[C@@H](O)[C@@H]2O)[C@@H](O)[C@@H]1O [1-kestose, β-D-Fru-(2→1)-β-D-Fru-(2→1)-α-D-Glu]",2.2 mU/μg,6.3 mU/μg,2.0%,2.8 grams/liter,6.4 grams/liter,10.1 grams/liter,9.6 grams/liter,4.5 grams/liter,2.4%,,,,
"OC[C@H]1O[C@@](CO)(OC[C@H]2O[C@@](CO)(O[C@H]3O[C@H](CO)[C@@H](O)[C@H](O)[C@H]3O)[C@@H](O)[C@@H]2O)[C@@H](O)[C@@H]1O [6-kestose, β-D-Fru-(2→6)-β-D-Fru-(2→1)-α-D-Glu]",,,6.6%,5.4 grams/liter,12.7 grams/liter,33.5 grams/liter,31.0 grams/liter,10.6 grams/liter,5.9%,3.3,3.3,,
O=C(CO)[C@@H](O)[C@H](O)[C@H](O)CO [fructose],,,8.7%,5.3 grams/liter,16.8 grams/liter,44.3 grams/liter,54.8 grams/liter,113.6 grams/liter,12.7%,,,,
OC[C@H]1O[C@@H](O[C@H]2[C@H](O)[C@@H](O)C(O)O[C@@H]2CO)[C@H](O)[C@@H](O)[C@H]1O (stereo partly shown) [lactose],,,,,,,,,,,,No activity was detected,not observed
OC[C@H]1O[C@H](O[C@@H]2COC(O)(CO)[C@@H](O)[C@@H]2O)[C@H](O)[C@@H](O)[C@@H]1O (stereo partly shown) [leucrose],,,,,,,,,,,,No activity was detected,not observed
OC[C@H]1O[C@@](CO)(OC[C@@]2(OC[C@@]3(O[C@H]4O[C@H](CO)[C@@H](O)[C@H](O)[C@H]4O)O[C@H](CO)[C@@H](O)[C@@H]3O)O[C@H](CO)[C@@H](O)[C@@H]2O)[C@@H](O)[C@@H]1O [nystose],0.6 mU/μg,6.2 mU/μg,,,,,,,,,,,
OC[C@H]1O[C@H](OC[C@H]2OC(O)(CO)[C@@H](O)[C@@H]2O)[C@H](O)[C@@H](O)[C@@H]1O (stereo partly shown) [palatinose],,,,,,,,,,,,No activity was detected,not observed
OC[C@H]1O[C@H](OC[C@H]2O[C@H](O[C@]3(CO)O[C@H](CO)[C@@H](O)[C@@H]3O)[C@H](O)[C@@H](O)[C@@H]2O)[C@H](O)[C@@H](O)[C@H]1O [raffinose],0.2 mU/μg,7.5 mU/μg,,,,,,,,,,,
"OC[C@H]1O[C@@](CO)(O[C@H]2O[C@H](CO)[C@@H](O)[C@H](O)[C@H]2O)[C@@H](O)[C@@H]1O [sucrose, α-D-Glu-(1→2)-β-D-Fru]",24 mU/μg,109 mU/μg,70.8%,487.3 grams/liter,453.8 grams/liter,361.6 grams/liter,343.7 grams/liter,240.9 grams/liter,64.1%,,,,
O=C(CO)[C@@H](O[C@H]1O[C@H](CO)[C@@H](O)[C@H](O)[C@H]1O)[C@H](O)[C@H](O)CO [turanose],,,,,,,,,,,,No activity was detected,not observed
